Test results: ChEMBL document CHEMBL4507284, “Data for DCP probe BI-1230” (2021)

Experiments:
[1] = molecular target: Activin receptor type-1 (Homo sapiens) (UniProt Q04771); conditions: Compound concentration 1000.0 nM
[2] = molecular target: RAC-alpha serine/threonine-protein kinase (Homo sapiens) (UniProt P31749); conditions: Compound concentration 1000.0 nM
[3] = molecular target: Aurora kinase A (Homo sapiens) (UniProt O14965); conditions: Compound concentration 1000.0 nM
[4] = molecular target: Serine/threonine-protein kinase BRSK1 (Homo sapiens) (UniProt Q8TDC3); conditions: Compound concentration 1000.0 nM
[5] = molecular target: Cyclin-dependent kinase 4 (Homo sapiens) (UniProt P11802); conditions: Compound concentration 1000.0 nM
[6] = molecular target: Cyclin-dependent kinase-like 1 (Homo sapiens) (UniProt Q00532); conditions: Compound concentration 1000.0 nM
[7] = molecular target: Dual specificity protein kinase CLK2 (Homo sapiens) (UniProt P49760); conditions: Compound concentration 1000.0 nM
[8] = molecular target: Casein kinase II subunit alpha' (Homo sapiens) (UniProt P19784); conditions: Compound concentration 1000.0 nM
[9] = molecular target: Serine/threonine-protein kinase DCLK1 (Homo sapiens) (UniProt O15075); conditions: Compound concentration 1000.0 nM
[10] = molecular target: Serine/threonine-protein kinase DCLK3 (Homo sapiens) (UniProt Q9C098); conditions: Compound concentration 1000.0 nM
[11] = molecular target: Serine/threonine-protein kinase 17A (Homo sapiens) (UniProt Q9UEE5); conditions: Compound concentration 1000.0 nM
[12] = system: Epidermal growth factor receptor (Homo sapiens), P00533 [UNDEFINED MUTATION]; conditions: Compound concentration 1000.0 nM
[13] = molecular target: Eukaryotic translation initiation factor 2-alpha kinase 1 (Homo sapiens) (UniProt Q9BQI3); conditions: Compound concentration 1000.0 nM
[14] = molecular target: Ephrin type-B receptor 4 (Homo sapiens) (UniProt P54760); conditions: Compound concentration 1000.0 nM
Chain of Ephrin type-B receptor 4 (Homo sapiens) (P54760 whole entry): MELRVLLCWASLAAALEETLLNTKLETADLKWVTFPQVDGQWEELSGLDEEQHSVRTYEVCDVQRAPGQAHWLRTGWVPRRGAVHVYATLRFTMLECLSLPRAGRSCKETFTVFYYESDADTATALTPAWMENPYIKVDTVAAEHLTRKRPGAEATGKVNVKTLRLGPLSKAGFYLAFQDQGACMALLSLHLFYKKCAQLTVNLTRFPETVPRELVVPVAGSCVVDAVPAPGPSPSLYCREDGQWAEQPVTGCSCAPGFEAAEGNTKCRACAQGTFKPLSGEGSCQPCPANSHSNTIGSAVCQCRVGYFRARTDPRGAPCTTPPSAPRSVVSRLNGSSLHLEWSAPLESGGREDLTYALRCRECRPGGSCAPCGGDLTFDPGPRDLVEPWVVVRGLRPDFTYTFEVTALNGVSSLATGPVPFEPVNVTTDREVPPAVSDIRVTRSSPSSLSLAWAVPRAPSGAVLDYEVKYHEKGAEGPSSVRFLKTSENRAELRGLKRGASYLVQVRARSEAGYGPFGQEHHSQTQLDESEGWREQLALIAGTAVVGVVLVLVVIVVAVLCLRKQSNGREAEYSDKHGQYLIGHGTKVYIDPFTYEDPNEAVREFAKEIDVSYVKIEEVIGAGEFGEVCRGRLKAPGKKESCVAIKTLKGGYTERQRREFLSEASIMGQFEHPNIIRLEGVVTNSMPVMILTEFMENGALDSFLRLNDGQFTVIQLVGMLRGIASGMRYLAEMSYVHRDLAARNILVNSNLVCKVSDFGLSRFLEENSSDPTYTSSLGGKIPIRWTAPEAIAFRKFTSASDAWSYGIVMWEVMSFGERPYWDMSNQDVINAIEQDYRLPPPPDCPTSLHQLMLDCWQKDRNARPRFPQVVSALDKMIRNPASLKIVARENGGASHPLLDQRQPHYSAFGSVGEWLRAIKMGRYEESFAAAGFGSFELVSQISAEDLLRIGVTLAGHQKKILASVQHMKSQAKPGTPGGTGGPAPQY

[15] = molecular target: Focal adhesion kinase 1 (Homo sapiens) (UniProt Q05397); conditions: Compound concentration 1000.0 nM
[16] = molecular target: Fibroblast growth factor receptor 1 (Homo sapiens) (UniProt P11362); conditions: Compound concentration 1000.0 nM
[17] = molecular target: Fibroblast growth factor receptor 2 (Homo sapiens) (UniProt P21802); conditions: Compound concentration 1000.0 nM
[18] = molecular target: Fibroblast growth factor receptor 3 (Homo sapiens) (UniProt P22607); conditions: Compound concentration 1000.0 nM
[19] = molecular target: Receptor-type tyrosine-protein kinase FLT3 (Homo sapiens) (UniProt P36888); conditions: Compound concentration 1000.0 nM
[20] = system: Receptor-type tyrosine-protein kinase FLT3 (Homo sapiens), P36888 [D835Y]; conditions: Compound concentration 1000.0 nM
[21] = molecular target: Rhodopsin kinase GRK7 (Homo sapiens) (UniProt Q8WTQ7); conditions: Compound concentration 1000.0 nM
[22] = molecular target: Insulin receptor-related protein (Homo sapiens) (UniProt P14616); conditions: Compound concentration 1000.0 nM
[23] = molecular target: Tyrosine-protein kinase ITK/TSK (Homo sapiens) (UniProt Q08881); conditions: Compound concentration 1000.0 nM
Chain of Tyrosine-protein kinase ITK/TSK (Homo sapiens) (Q08881 whole entry): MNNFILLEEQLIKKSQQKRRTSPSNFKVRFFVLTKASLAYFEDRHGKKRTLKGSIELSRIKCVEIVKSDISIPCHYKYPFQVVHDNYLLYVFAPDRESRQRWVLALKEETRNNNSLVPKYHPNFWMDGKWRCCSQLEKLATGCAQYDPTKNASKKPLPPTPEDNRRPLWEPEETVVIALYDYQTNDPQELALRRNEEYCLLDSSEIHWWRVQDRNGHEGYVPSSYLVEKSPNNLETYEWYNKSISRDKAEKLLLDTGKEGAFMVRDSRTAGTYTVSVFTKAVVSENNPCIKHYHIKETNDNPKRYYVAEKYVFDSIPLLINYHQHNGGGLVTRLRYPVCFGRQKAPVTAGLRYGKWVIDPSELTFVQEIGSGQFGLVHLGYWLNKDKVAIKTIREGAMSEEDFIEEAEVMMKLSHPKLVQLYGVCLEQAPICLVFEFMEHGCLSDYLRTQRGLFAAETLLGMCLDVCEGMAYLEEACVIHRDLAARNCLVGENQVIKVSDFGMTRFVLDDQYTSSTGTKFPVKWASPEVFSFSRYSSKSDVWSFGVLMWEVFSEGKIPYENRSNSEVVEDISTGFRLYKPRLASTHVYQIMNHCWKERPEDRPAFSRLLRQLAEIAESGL

[24] = molecular target: Mast/stem cell growth factor receptor Kit (Homo sapiens) (UniProt P10721); conditions: Compound concentration 1000.0 nM
[25] = molecular target: Mitogen-activated protein kinase kinase kinase 1 (Homo sapiens) (UniProt Q13233); conditions: Compound concentration 1000.0 nM
[26] = molecular target: Mitogen-activated protein kinase kinase kinase kinase 5 (Homo sapiens) (UniProt Q9Y4K4); conditions: Compound concentration 1000.0 nM
[27] = molecular target: Serine/threonine-protein kinase MARK1 (Homo sapiens) (UniProt Q9P0L2); conditions: Compound concentration 1000.0 nM
[28] = molecular target: MAP kinase-interacting serine/threonine-protein kinase 2 (Homo sapiens) (UniProt Q9HBH9); conditions: Compound concentration 1000.0 nM
[29] = molecular target: Macrophage-stimulating protein receptor (Homo sapiens) (UniProt Q04912); conditions: Compound concentration 1000.0 nM
[30] = molecular target: Myosin light chain kinase family member 4 (Homo sapiens) (UniProt Q86YV6); conditions: Compound concentration 1000.0 nM
[31] = molecular target: Serine/threonine-protein kinase Nek11 (Homo sapiens) (UniProt Q8NG66); conditions: Compound concentration 1000.0 nM
[32] = molecular target: Serine/threonine-protein kinase pim-1 (Homo sapiens) (UniProt P11309); conditions: Compound concentration 1000.0 nM
Chain of Serine/threonine-protein kinase pim-1 (Homo sapiens) (P11309 whole entry, looked up): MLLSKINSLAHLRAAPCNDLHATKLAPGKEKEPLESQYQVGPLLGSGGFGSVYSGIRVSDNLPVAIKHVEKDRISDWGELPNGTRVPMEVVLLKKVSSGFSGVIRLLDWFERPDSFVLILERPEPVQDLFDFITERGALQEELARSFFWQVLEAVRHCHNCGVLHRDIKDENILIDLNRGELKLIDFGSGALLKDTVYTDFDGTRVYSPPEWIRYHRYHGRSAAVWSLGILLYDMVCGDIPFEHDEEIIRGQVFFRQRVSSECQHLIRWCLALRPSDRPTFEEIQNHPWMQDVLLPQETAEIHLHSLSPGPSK

[33] = molecular target: Phosphatidylinositol 4-phosphate 5-kinase type-1 alpha (Homo sapiens) (UniProt Q99755); conditions: Compound concentration 1000.0 nM
Chain of Phosphatidylinositol 4-phosphate 5-kinase type-1 alpha (Homo sapiens) (Q99755 whole entry): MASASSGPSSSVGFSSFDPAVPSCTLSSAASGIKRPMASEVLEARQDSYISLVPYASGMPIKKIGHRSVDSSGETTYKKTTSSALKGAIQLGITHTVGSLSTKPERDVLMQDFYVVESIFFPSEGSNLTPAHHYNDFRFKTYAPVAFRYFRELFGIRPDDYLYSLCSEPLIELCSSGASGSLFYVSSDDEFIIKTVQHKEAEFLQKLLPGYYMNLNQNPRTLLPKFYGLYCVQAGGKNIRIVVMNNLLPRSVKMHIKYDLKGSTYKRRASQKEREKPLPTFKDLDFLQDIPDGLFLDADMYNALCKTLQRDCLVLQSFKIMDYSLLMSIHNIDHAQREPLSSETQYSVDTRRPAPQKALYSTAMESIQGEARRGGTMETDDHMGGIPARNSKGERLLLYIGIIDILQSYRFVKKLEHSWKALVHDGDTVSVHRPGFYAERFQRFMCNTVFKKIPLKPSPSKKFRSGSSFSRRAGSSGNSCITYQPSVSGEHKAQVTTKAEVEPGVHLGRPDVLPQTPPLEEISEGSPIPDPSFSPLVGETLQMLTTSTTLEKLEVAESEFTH

[34] = molecular target: Membrane-associated tyrosine- and threonine-specific cdc2-inhibitory kinase (Homo sapiens) (UniProt Q99640); conditions: Compound concentration 1000.0 nM
[35] = molecular target: Protein kinase C delta type (Homo sapiens) (UniProt Q05655); conditions: Compound concentration 1000.0 nM
[36] = molecular target: Protein kinase C eta type (Homo sapiens) (UniProt P24723); conditions: Compound concentration 1000.0 nM
[37] = molecular target: Interferon-induced, double-stranded RNA-activated protein kinase (Homo sapiens) (UniProt P19525); conditions: Compound concentration 1000.0 nM
[38] = molecular target: Serine/threonine-protein kinase SIK1 (Homo sapiens) (UniProt P57059); conditions: Compound concentration 1000.0 nM
[39] = molecular target: NUAK family SNF1-like kinase 2 (Homo sapiens) (UniProt Q9H093); conditions: Compound concentration 1000.0 nM
Chain of NUAK family SNF1-like kinase 2 (Homo sapiens) (Q9H093 whole entry): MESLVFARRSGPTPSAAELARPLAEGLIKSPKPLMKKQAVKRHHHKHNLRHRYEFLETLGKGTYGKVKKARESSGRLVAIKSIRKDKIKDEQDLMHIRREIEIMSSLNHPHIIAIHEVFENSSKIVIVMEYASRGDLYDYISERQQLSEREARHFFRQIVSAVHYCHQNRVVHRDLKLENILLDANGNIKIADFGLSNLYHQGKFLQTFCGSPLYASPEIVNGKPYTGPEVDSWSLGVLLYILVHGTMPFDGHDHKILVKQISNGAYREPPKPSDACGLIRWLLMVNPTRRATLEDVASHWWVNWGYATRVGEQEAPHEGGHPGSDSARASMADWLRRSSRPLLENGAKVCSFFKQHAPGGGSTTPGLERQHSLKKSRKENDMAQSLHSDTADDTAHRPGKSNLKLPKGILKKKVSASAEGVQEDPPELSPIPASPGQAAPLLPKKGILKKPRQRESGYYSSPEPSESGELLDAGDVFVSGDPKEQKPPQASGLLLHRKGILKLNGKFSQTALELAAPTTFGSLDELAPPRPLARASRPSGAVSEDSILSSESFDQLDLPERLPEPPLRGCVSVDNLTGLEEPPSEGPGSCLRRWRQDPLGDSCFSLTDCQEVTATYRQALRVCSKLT

[40] = molecular target: Angiopoietin-1 receptor (Homo sapiens) (UniProt Q02763); conditions: Compound concentration 1000.0 nM
Chain of Angiopoietin-1 receptor (Homo sapiens) (Q02763 whole entry): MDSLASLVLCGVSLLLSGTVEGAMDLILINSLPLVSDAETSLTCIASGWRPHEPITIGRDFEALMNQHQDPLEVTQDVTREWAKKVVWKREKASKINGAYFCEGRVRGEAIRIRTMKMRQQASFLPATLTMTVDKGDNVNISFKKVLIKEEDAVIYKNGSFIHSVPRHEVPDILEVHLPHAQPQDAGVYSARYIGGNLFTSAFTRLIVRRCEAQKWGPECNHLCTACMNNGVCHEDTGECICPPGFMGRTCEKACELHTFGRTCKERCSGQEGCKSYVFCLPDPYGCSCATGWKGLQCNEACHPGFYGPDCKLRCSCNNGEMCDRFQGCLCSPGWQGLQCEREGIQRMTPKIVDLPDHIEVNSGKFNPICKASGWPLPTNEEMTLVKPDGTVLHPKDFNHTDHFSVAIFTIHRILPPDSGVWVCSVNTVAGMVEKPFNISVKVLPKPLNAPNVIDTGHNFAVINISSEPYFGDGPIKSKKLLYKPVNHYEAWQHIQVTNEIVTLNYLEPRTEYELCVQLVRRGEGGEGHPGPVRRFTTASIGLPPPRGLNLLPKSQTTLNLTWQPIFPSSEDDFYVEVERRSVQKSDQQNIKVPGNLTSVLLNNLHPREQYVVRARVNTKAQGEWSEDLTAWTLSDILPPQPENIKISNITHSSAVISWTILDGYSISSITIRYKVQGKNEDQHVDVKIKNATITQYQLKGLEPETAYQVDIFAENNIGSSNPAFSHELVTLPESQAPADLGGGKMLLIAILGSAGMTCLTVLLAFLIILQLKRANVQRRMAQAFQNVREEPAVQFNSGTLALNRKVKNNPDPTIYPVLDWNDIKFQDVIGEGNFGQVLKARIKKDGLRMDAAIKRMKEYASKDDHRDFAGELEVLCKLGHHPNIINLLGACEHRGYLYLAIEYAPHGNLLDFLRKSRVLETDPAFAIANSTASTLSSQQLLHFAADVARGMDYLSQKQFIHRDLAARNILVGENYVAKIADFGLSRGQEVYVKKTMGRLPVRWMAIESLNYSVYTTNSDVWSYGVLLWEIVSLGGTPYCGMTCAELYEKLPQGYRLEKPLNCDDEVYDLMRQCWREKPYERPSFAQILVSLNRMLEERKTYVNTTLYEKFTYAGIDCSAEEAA

[41] = molecular target: TRAF2 and NCK-interacting protein kinase (Homo sapiens) (UniProt Q9UKE5); conditions: Compound concentration 1000.0 nM
[42] = molecular target: 5-hydroxytryptamine receptor 1B (Homo sapiens) (UniProt P28222); conditions: Compound concentration 10.0 uM
[43] = molecular target: Sodium-dependent serotonin transporter (Homo sapiens) (UniProt P31645); conditions: Compound concentration 10.0 uM
Chain of Sodium-dependent serotonin transporter (Homo sapiens) (P31645 whole entry, looked up): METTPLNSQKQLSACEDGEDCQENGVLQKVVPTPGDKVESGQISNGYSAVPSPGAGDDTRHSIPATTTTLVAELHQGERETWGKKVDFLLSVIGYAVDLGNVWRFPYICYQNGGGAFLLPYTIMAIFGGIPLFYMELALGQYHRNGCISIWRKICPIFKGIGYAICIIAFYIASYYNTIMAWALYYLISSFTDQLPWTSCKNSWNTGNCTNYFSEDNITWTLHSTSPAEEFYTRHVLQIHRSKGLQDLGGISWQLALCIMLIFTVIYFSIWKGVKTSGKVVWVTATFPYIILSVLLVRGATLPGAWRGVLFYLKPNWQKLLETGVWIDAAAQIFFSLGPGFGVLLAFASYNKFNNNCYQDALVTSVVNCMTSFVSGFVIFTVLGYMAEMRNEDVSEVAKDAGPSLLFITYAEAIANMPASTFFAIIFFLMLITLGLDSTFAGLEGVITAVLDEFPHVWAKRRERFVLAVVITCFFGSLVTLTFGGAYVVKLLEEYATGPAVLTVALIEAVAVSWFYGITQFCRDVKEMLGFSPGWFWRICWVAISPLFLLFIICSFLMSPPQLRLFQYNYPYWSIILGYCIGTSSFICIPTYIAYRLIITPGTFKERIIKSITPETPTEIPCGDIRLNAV

[44] = molecular target: Muscarinic acetylcholine receptor M1 (Homo sapiens) (UniProt P11229); conditions: Compound concentration 10.0 uM
[45] = molecular target: Sigma non-opioid intracellular receptor 1 (Homo sapiens) (UniProt Q99720); conditions: Compound concentration 10.0 uM

COc1ccc2c(O[C@@H]3C[C@H]4C(=O)N[C@]5(C(=O)O)CC5/C=C\CCCCC[C@H](NC(=O)OC5CCCC5)C(=O)N4C3)cc(-c3csc(NC(=O)C(C)C)n3)nc2c1C (stereo not given in full) [BI 1230]
inactive: residual activity [1] 100% | residual activity [2] 100% | residual activity [3] 69% | residual activity [4] 85% | residual activity [5] 88% | residual activity [6] 99% | residual activity [7] 100% | residual activity [8] 100% | residual activity [9] 76% | residual activity [10] 96% | residual activity [11] 99% | residual activity [12] 98% | residual activity [13] 96% | residual activity [14] 100% | residual activity [15] 99% | residual activity [16] 98% | residual activity [17] 96% | residual activity [18] 100% | residual activity [19] 88% | residual activity [20] 87% | residual activity [21] 87% | residual activity [22] 95% | residual activity [23] 95% | residual activity [24] 72% | residual activity [25] 82% | residual activity [26] 100% | residual activity [27] 100% | residual activity [28] 70% | residual activity [29] 100% | residual activity [30] 81% | residual activity [31] 84% | residual activity [32] 97% | residual activity [33] 98% | residual activity [34] 100% | residual activity [35] 84% | residual activity [36] 100% | residual activity [37] 100% | residual activity [38] 100% | residual activity [39] 91% | residual activity [40] 100% | residual activity [41] 96% | inhibition [42] 7.71% | inhibition [43] -8.36% | inhibition [44] 8.82% | inhibition [45] 42.1%

O=C(N[C@H]1CCCCC/C=C\C2C[C@@]2(C(=O)O)NC(=O)[C@@H]2C[C@@H](Oc3ccncc3)CN2C1=O)OC1CCCC1 (stereo not given in full) [BI 1675]
inactive: residual activity [1] 100% | residual activity [2] 100% | residual activity [3] 92% | residual activity [4] 80% | residual activity [5] 89% | residual activity [6] 100% | residual activity [7] 100% | residual activity [8] 100% | residual activity [9] 97% | residual activity [10] 100% | residual activity [11] 100% | residual activity [12] 78% | residual activity [13] 100% | residual activity [14] 100% | residual activity [15] 97% | residual activity [16] 100% | residual activity [17] 79% | residual activity [18] 88% | residual activity [19] 93% | residual activity [20] 98% | residual activity [21] 100% | residual activity [22] 100% | residual activity [23] 100% | residual activity [24] 84% | residual activity [25] 84% | residual activity [26] 100% | residual activity [27] 100% | residual activity [28] 75% | residual activity [29] 97% | residual activity [30] 100% | residual activity [31] 100% | residual activity [32] 100% | residual activity [33] 99% | residual activity [34] 97% | residual activity [35] 100% | residual activity [36] 91% | residual activity [37] 100% | residual activity [38] 83% | residual activity [39] 100% | residual activity [40] 100% | residual activity [41] 78% | inhibition [42] -3.04% | inhibition [43] -6.94% | inhibition [44] 14.1% | inhibition [45] 11.1%
